Assays:
[1] = LogP (HCOOH)
[2] = tested on: Botrytis cinerea; assay: Botrytis test (beans)/protective; format: in vivo; conditions: single active compound, protective, evaluated 2 days after inoculation
Experimental: Solvent: 24.5 parts by weight of acetone • 24.5 parts by weight of dimethylacetamide
(§1) Emulsifier: 1 part by weight of alkylaryl polyglycol ether
To produce a suitable preparation of active compound, 1 part by weight of active compound is mixed with the stated amounts of solvent and emulsifier, and the concentrate is diluted with water to the desired concentration.
To test for protective activity, young plants are sprayed with the preparation of active compound. After the spray coating has dried on, 2 small pieces of agar covered with growth of Botrytis cinerea are placed on each leaf. The inoculated plants are placed in a darkened chamber at 20° C. and a relative atmospheric humidity of 100%.
2 days after the inoculation, the size of the lesions on the leaves is evaluated. 0% means an efficacy which corresponds to that of the control, while an efficacy of 100% means that no disease is observed.

[3] = tested on: Septoria tritici; assay: Septoria tritici test (wheat)/protective; format: in vivo; conditions: single active compound, rate of application 125 ppm, protective, evaluated 20 days after inoculation
Experimental: (§2) Solvent: 50 parts by weight of n,n-dimethylacetamid
as §1
(§3) To produce a suitable preparation of active compound, 1 part by weight of active compound or active compound combination is mixed with the stated amounts of solvent and emulsifier, and the concentrate is diluted with water to the desired concentration.
To test the protective activity, young plants are sprayed with a preparation of active compound or active compound combination at the stated rate of application. After the spray coating has been dried, the plants are sprayed with a spore suspension of Septoria tritici. The plants remain for 48 hours at 20° C. and then 60 hours at 15° C. in an incubation cabinet at a relative atmospheric humidity of 100%.
(§4) The plants are placed in a greenhouse at a temperature of approximately 15° C. and a relative atmospheric humidity of approximately 80%.
The test is evaluated 20 days after inoculation. 0% means an efficacy which corresponds to that of the control, while an efficacy of 100% means that no disease is observed.

[4] = tested on: Leptosphaeria nodorum; assay: Leptosphaeria nodorum test (wheat)/protective; format: in vivo; conditions: single active compound, 125 ppm, protective, evaluated 10 days after inoculation
Experimental: as §2, §1, §3
To test for protective activity, young plants are sprayed with a preparation of active compound or active compound combination at the stated rate of application. After the spray coating has been dried, the plants are sprayed with a spore suspension of Leptosphaeria nodorum. The plants remain for 48 hours in an incubation cabinet at 20° C. and a relative atmospheric humidity of 100%.
as §4
The test is evaluated 10 days after the inoculation. 0% means an efficacy which corresponds to that of the control, while an efficacy of 100% means that no disease is observed.

SMILES | Efficacy in % ([2]; 10 ppm) [%] | Efficacy in % ([2]; 100 ppm) [%] | Efficacy in % a.e. (actual efficacy) [3] [%] | Efficacy in % a.e. (actual efficacy) [4] [%] | further results
Cc1cc(Br)c(C=O)cc1[N+](=O)[O-] [2-bromo-4-methyl-5-nitrobenzaldehyd, 2-bromo-4-methyl-5-nitrobenzaldehyde] |  |  |  |  | chromatographic logP ([1]; HCOOH): 2.61
Cc1cc(OCCC[Si](C)(C)C)c(C(F)F)cc1N [5-(difluoromethyl)-2-methyl-4-[3-(trimethylsilyl)propoxy]aniline] |  |  |  |  | chromatographic logP ([1]; HCOOH (formic acid)): 3.8
CCN(C)/C=N/c1cc(C(F)(F)F)c(OCCC[Si](C)(C)C)cc1C [(1-37), N-[5-trifluoro-methyl-2-methyl-4-[3-(trimethylsilyl)propoxyl]phenyl]-N-ethyl-N-methyl-methanimidamide] | 0 | 23 | 30 | 92 | 
CCN(C)/C=N/c1cc(C(F)F)c(OCCC[Si](C)(C)C)cc1C [(1-42), N′-{5-(difluoromethyl)-2-methyl-4-[3-(trimethylsilyl)propoxy]phenyl}-N-ethyl-N-methylimidoformamide] | 0 | 29 |  |  | chromatographic logP ([1]; HCOOH (formic acid)): 2.81
Cn1cc(C(=O)Nc2ccccc2C2CC2C2CC2)c(C(F)F)n1 (centres unmarked) [(b-1), reference compound] |  | 38 | 10 |  | 
Cn1cc(C(=O)Nc2ccccc2-c2ccc(C#CC(C)(C)C)cc2)c(C(F)F)n1 [(b-5), reference compound] | 80 |  |  | 67 | 
CC(C)(C)C#Cc1ccc(-c2ccccc2NC(=O)c2cccnc2Cl)cc1 [(b-7)] |  |  |  | 67 | 
CC(C)[C@@H]1C2CCC1c1c(NC(=O)c3cn(C)nc3C(F)F)cccc12 (some centres unmarked) [(b-17)] |  |  | 30 |  | 
N#Cc1c[nH]cc1-c1cccc2c1OC(F)(F)O2 [(b-19)] |  |  | 30 |  | 
Cc1cc(OCCC[Si](C)(C)C)c(C(F)F)cc1[N+](=O)[O-] [{3-[2-(difluoromethyl)-5-methyl-4-nitrophenoxy]propyl}(trimethyl)silane] |  |  |  |  | chromatographic logP ([1]; HCOOH): 5.44
